Measured values from ChEMBL document CHEMBL1155460, “Prediction of acetylcholinesterase inhibitors and characterization of correlative molecular descriptors by machine learning methods” (Eur J Med Chem, 2010).

Target: Acetylcholinesterase (Homo sapiens, UniProt P22303)
Sequence (P22303 whole entry): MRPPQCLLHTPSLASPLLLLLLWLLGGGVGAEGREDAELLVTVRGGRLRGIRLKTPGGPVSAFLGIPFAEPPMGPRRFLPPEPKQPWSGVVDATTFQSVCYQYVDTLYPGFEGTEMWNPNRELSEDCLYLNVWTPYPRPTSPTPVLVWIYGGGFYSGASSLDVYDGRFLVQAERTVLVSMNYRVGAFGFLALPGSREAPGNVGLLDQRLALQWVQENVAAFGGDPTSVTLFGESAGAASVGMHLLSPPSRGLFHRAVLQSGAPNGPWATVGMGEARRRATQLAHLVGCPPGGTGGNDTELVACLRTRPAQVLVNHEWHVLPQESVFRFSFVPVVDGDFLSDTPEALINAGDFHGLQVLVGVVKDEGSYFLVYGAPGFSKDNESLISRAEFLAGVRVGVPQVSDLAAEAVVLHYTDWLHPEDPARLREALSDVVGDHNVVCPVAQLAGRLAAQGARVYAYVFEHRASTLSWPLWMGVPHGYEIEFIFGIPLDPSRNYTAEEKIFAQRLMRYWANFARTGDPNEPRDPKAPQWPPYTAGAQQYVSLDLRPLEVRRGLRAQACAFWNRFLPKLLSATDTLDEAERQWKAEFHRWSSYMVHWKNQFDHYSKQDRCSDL

| Structure (SMILES) | IC50 [nM] |
| --- | --- |
| c1ccc(-c2ccc(NCN3CCCCC3)nc2)cc1 | 13000 |
| CN(C)C(=O)Nc1cccc2n1cc(-c1ccc(OC(=O)N(C)C)cc1)[n+]2C | 1600 |
| c1ccc2c(NCCCCCCNc3c4c(nc5ncccc35)CCCCC4)c3c(nc2c1)CCCCC3 | 2.5 |
| O=C(NCCCCCCCNc1c2c(nc3cc(Cl)ccc13)CCCC2)c1c[nH]c2ccccc12 | 36 |
| Cc1nc(N)ncc1-c1nnnn1-c1ccc(-c2ccccc2)cc1 | 27000 |
| c1ccc2c(NCCCCCCCCNc3ccncc3)c3c(nc2c1)CCCC3 | 13.6 |
| N#Cc1cc(-c2ccccc2)nnc1NCCN1CCOCC1 [BAZINAPRINE] | 100000 |
| CCN1CCc2cc(C(=O)CCC3CCN(Cc4ccccc4)CC3)ccc21 | 11 |
| Cc1cc(-c2ccc(Cl)cc2)nnc1NCCN1CCOCC1 | 34000 |
| CCCCCN1CCc2cc(C(=O)CCC3CCN(Cc4ccccc4)CC3)ccc21 | 47 |
| CNC(=O)Oc1cccc(CN(C)CCCCCCCOc2ccc3c(c2)CC/C(=C/c2cc(O)c(O)c(O)c2)C3=O)c1 | 4.94 |
| COc1ccc2c(c1OC)C(=O)CC2CCC1CCN(Cc2ccccc2)CC1 (centres undefined) | 8 |
| CC1=C(C)c2nc3ccccc3c(N)c2C1 | 3500 |
| O=C(C1CCCCC1)N(CCC1CCN(Cc2ccccc2)CC1)c1ccccc1 | 9400 |
| CNC(=O)Oc1cccc(CN(C)CCCCCCCOc2ccc3c(c2)O/C(=C\c2cc(O)c(O)c(O)c2)C3=O)c1 | 0.52 |
| O=c1c2ccccc2ncn1CCC1CCN(Cc2ccccc2)CC1 | 1200 |
| COc1cc(N)c(Cl)cc1C(=O)NC1CCN(Cc2ccccc2)CC1 [CLEBOPRIDE] | 890 |
| CN(C)CCCCCCCCCCNc1c2c(nc3ccccc13)CCCC2 | 45 |
| c1ccc(-c2ccc(NCCCN3CCOCC3)nn2)cc1 | 410000 |
| CN(C)C(=O)Oc1cccc(-c2cn3c(Cl)cccc3[n+]2C)c1 | 12600 |
| Cc1cn2cc(C(N)=O)ccc2[n+]1C | 27000 |
| Cc1cccc2n1cc(-c1cccc(OC(=O)N(C)C)c1)[n+]2C | 24000 |

| Structure (SMILES) | IC50 [nM] |
| --- | --- |
| O=c1[nH]c2cc(Cl)ccc2c(=O)n1CCC1CCN(Cc2ccccc2)CC1 | 4.5 |
| CN(C)C(=O)Oc1ccc(-c2cn3c(NC(=O)c4ccccc4)cccc3[n+]2C)cc1 | 200 |
| COc1ccc(CN2CCC(CCN3C(=O)c4ccc([N+](=O)[O-])cc4C3=O)CC2)cc1 | 440 |
| CCCCCCNC(=O)Oc1ccc2c(c1)[C@]1(C)CCN(C)[C@@H]1C2 | 10 |
| Nc1c2c(nc3ccccc13)-c1cc(Br)ccc1CC2 | 144000 |
| CNC(=O)Oc1ccc(-c2cn3c(C)cccc3[n+]2C)cc1 | 4000 |
| c1ccc(NCCCCCCCCCCCCNc2c3c(nc4ccccc24)CCCC3)cc1 | 261 |
| CNC(=O)Oc1cccc(CN(C)CCCCCCCOc2ccc3c(c2)O/C(=C\c2cccc4ccccc24)C3=O)c1 | 2.09 |
| Cc1ccc2c(Nc3ccccc3)c3c(nc2c1)CCCC3 | 750 |
| O=C(CCOCCc1c[nH]c2ccccc12)NCCCCCCNc1c2c(nc3cc(Cl)ccc13)CCCC2 | 0.7 |
| O=C(CCC1CCN(Cc2cccc(Cl)c2)CC1)c1ccc2c(c1)CCN2 | 59 |
| CN(C)C(=O)Oc1ccc(-c2cn3ccccc3[n+]2C)cc1 | 17100 |
| Cc1ccc(C(=O)NC(=S)NCCOCCN(C)Cc2ccccc2)cc1 | 77 |
| O=C(c1ccc(F)cc1)N(CCC1CCN(Cc2ccccc2)CC1)c1ccccc1 | 18 |
| Cc1cc(-c2ccccc2)nnc1NCCN1CCCCC1 | 5400 |
| CN(CCOCCNC(=S)NC(=O)c1ccc(-c2ccccc2)cc1)Cc1ccccc1 | 230 |
| Nc1c2c(nc3ccccc13)-c1ccccc1NCC2 | 69400 |
| O=C(Nc1ccccc1)c1ccc2c(c1)C(=O)N(CCC1CCN(Cc3ccccc3)CC1)C2=O | 2.2 |
| Cc1cc(-c2ccccc2)nnc1NCCN1CCOCC1 [MINAPRINE] | 85000 |
| OCc1cc(-c2ccccc2)nnc1NCCN1CCOCC1 | 440000 |
| CN(CCOCCNC(=S)NC(=O)c1ccc2c(c1)C(=O)c1ccccc1-2)Cc1ccccc1 | 30 |
| CCCCCCNC(=O)Oc1cccc(CN(CC)CCCOc2ccc3c(=O)c4ccccc4oc3c2)c1 | 160 |
